Assays:
TBK1 = target: T1, TBK1 (Homo sapiens, UniProt Q9UHD2); test: TBK biochemical assay; settings: 10 point 1:4 dose response, 30 uM top concentration, 90 min at 25° C., LabChip EZ Reader II; read-out: TBK1_IC50
T1 sequence (Q9UHD2 1-729): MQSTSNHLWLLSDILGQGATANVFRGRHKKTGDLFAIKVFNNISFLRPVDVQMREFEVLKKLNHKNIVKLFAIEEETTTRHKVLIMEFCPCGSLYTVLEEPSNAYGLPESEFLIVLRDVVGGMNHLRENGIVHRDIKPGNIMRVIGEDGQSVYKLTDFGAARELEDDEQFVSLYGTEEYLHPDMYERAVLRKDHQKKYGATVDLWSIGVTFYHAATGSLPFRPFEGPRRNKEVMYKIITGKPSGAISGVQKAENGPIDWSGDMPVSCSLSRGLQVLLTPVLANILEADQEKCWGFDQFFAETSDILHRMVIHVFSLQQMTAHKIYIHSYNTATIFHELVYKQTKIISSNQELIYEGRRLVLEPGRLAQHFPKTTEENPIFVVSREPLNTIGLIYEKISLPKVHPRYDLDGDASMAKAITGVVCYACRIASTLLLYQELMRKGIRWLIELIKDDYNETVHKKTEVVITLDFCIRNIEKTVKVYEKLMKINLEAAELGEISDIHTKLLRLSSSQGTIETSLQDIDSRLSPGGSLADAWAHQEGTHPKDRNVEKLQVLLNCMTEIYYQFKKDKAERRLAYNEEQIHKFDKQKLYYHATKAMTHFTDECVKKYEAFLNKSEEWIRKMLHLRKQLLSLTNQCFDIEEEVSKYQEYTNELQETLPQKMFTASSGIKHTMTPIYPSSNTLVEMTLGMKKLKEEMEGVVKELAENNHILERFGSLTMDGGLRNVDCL
Procedure, shortened: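 Substrate and product were separated and quantified by microfluidic mobility-shift read (LabChip). 10 uM staurosporine served as the full-inhibition control, and the reference compound was tested from 1 uM final.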

IKKε = target: T2, IKKε (Homo sapiens, UniProt Q14164); test: IKKε biochemical assay; settings: 10 point 1:4 dose response, 30 uM top concentration, 90 min at 25° C., LabChip EZ Reader II; read-out: IKKε_IC50
T2 sequence (Q14164 1-716): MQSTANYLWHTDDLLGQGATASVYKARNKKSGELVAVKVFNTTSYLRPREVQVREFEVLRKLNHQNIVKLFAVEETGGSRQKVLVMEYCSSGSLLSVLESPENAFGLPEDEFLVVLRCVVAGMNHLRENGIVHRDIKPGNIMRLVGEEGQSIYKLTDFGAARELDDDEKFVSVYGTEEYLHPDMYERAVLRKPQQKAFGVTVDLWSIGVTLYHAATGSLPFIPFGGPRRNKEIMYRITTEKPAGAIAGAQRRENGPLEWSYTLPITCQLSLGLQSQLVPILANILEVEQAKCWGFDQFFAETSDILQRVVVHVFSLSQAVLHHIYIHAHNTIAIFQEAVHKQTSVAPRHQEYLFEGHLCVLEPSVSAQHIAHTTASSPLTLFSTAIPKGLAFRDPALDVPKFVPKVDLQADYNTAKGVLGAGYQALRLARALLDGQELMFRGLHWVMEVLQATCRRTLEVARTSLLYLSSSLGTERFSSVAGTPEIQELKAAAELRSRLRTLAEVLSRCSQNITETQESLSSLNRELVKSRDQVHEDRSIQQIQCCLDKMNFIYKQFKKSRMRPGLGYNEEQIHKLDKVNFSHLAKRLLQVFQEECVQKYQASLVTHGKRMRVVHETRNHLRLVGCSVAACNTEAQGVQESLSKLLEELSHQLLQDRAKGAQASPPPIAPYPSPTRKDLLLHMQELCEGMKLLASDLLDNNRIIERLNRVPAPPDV
Procedure, shortened: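 Compounds in 1% DMSO final were incubated with IKKε enzyme and substrate at 25° C. for 90 min, then stopped. Substrate and product peaks were resolved by LabChip EZ Reader II mobility-shift read-out. Staurosporine at 10 uM final served as the full-inhibition control.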

| SMILES | IC50 (TBK1) [nM] | IC50 (IKKε) [nM] |
| --- | --- | --- |
| COc1nc(Nc2nccc(-c3ccc(OC4(C)CCNCC4(F)F)c(C#N)c3)n2)ccc1N1CCN(C2COC2)CC1 (stereo not shown) [Example 263, 2-(3,3-Difluoro-4-methyl-piperidin-4-yloxy)-5-{2-[6-methoxy-5-(4-oxetan-3-yl-piperazin-1-yl)-pyridin-2-ylamino]-pyrimidin-4-yl}-benzonitrile] | < 100 | < 100 |
| COc1nc(Nc2nccc(-c3ccc(OC4(C)CCN(C(=O)[C@@H](O)CO)CC4(F)F)c(C#N)c3)n2)ccc1N1CCN(C2COC2)CC1 (stereo partly drawn) [Example 264, 2-[1-((S)-2,3-Dihydroxy-propionyl)-3,3-difluoro-4-methyl-piperidin-4-yloxy]-5-{2-[6-methoxy-5-(4-oxetan-3-yl-piperazin-1-yl)-pyridin-2-ylamino]-pyrimidin-4-yl}-benzonitrile] | < 100 | < 100 |
| COc1nc(Nc2nccc(-c3ccc(OC4(C)CCN(C(=O)[C@H](C)O)CC4(F)F)c(C#N)c3)n2)ccc1N1CCN(C2COC2)CC1 (stereo partly drawn) [Example 265, 2-[3,3-Difluoro-1-((S)-2-hydroxy-propionyl)-4-methyl-piperidin-4-yloxy]-5-{2-[6-methoxy-5-(4-oxetan-3-yl-piperazin-1-yl)-pyridin-2-ylamino]-pyrimidin-4-yl}-benzonitrile] | < 100 | < 100 |
| COc1nc(Nc2nccc(-c3ccc(OC4CCN(C(=O)[C@H](C)O)C(C)C4)c(C#N)c3)n2)ccc1N1CCN(C2COC2)CC1 (stereo partly drawn) [Example 266, 2-[1-((S)-2-Hydroxy-propionyl)-2-methyl-piperidin-4-yloxy]-5-{2-[6-methoxy-5-(4-oxetan-3-yl-piperazin-1-yl)-pyridin-2-ylamino]-pyrimidin-4-yl}-benzonitrile] | < 100 | < 100 |
| COc1nc(Nc2nccc(-c3ccc(OC4(C)CCNCC4)c(C#N)c3)n2)ccc1N1CCN(C2COC2)CC1 [Example 267, 5-{2-[6-Methoxy-5-(4-oxetan-3-yl-piperazin-1-yl)-pyridin-2-ylamino]-pyrimidin-4-yl}-2-(4-methyl-piperidin-4-yloxy)-benzonitrile] | < 100 | < 100 |
| COc1nc(Nc2nccc(-c3ccc(OC4(C)CCN(C(=O)[C@H](C)O)CC4)c(C#N)c3)n2)ccc1N1CCN(C2COC2)CC1 [Example 268, 2-[1-((S)-2-Hydroxy-propionyl)-4-methyl-piperidin-4-yloxy]-5-{2-[6-methoxy-5-(4-oxetan-3-yl-piperazin-1-yl)-pyridin-2-ylamino]-pyrimidin-4-yl}-benzonitrile] | < 100 | 100 to 1000 |
| COc1nc(Nc2nccc(-c3ccc(OC4(C)CCN(C(=O)[C@@H](O)CO)CC4)c(C#N)c3)n2)ccc1N1CCN(C2COC2)CC1 [Example 269, 2-[1-((S)-2,3-Dihydroxy-propionyl)-4-methyl-piperidin-4-yloxy]-5-{2-[6-methoxy-5-(4-oxetan-3-yl-piperazin-1-yl)-pyridin-2-ylamino]-pyrimidin-4-yl}-benzonitrile] | < 100 | < 100 |
| COc1nc(Nc2nccc(-c3ccc(OC4CCNCC4C)c(C#N)c3)n2)ccc1N1CCN(C2COC2)CC1 (stereo not shown) [Example 270, 5-{2-[6-Methoxy-5-(4-oxetan-3-yl-piperazin-1-yl)-pyridin-2-ylamino]-pyrimidin-4-yl}-2-(3-methyl-piperidin-4-yloxy)-benzonitrile] | < 100 | < 100 |
| COc1nc(Nc2nccc(-c3ccc(OC4CCN(C(=O)[C@H](C)O)CC4C)c(C#N)c3)n2)ccc1N1CCN(C2COC2)CC1 (stereo partly drawn) [Example 271, 2-[1-((S)-2-Hydroxy-propionyl)-3-methyl-piperidin-4-yloxy]-5-{2-[6-methoxy-5-(4-oxetan-3-yl-piperazin-1-yl)-pyridin-2-ylamino]-pyrimidin-4-yl}-benzonitrile] | < 100 | < 100 |
| COc1nc(Nc2nccc(-c3ccc(OC4CCN(C(=O)[C@@H](O)CO)CC4C)c(C#N)c3)n2)ccc1N1CCN(C2COC2)CC1 (stereo partly drawn) [Example 272, 2-[1-((S)-2,3-Dihydroxy-propionyl)-3-methyl-piperidin-4-yloxy]-5-{2-[6-methoxy-5-(4-oxetan-3-yl-piperazin-1-yl)-pyridin-2-ylamino]-pyrimidin-4-yl}-benzonitrile] | < 100 | < 100 |
| Cc1nc(C(=O)N2CCC(Oc3ccc(-c4ccnc(Nc5ccc(N6CCN(C7COC7)CC6)cc5)n4)cc3C#N)CC2)n[nH]1 [Example 273, 2-[[1-(5-methyl-1H-1,2,4-triazole-3-carbonyl)piperidin-4-yl]oxy]-5-[2-([4-[4-(oxetan-3-yl)piperazin-1-yl]phenyl]amino)pyrimidin-4-yl]benzonitrile] | < 100 | < 100 |

Further lines, results first:

| IC50 (TBK1) [nM] | IC50 (IKKε) [nM] | SMILES |
| --- | --- | --- |
| < 100 | < 100 | COc1nc(Nc2nccc(-c3ccc(OC4CCN(C(=O)[C@@H]5CCC(=O)N5)CC4(F)F)c(C#N)c3)n2)ccc1N1CCN(C2COC2)CC1 (stereo partly drawn) [Example 256, 2,2-[3,3-Difluoro-1-((S)-5-oxo-pyrrolidine-2-carbonyl)-piperidin-4-yloxy]-5-{2-[6-methoxy-5-(4-oxetan-3-yl-piperazin-1-yl)-pyridin-2-ylamino]-pyrimidin-4-yl}-benzonitrile] |
| < 100 | < 100 | COc1nc(Nc2nccc(-c3ccc(OC4CCN(C(=O)[C@H](C)CO)CC4(F)F)c(C#N)c3)n2)ccc1N1CCN(C2COC2)CC1 (stereo partly drawn) [Example 257, 2-[3,3-Difluoro-1-((R)-3-hydroxy-2-methyl-propionyl)-piperidin-4-yloxy]-5-{2-[6-methoxy-5-(4-oxetan-3-yl-piperazin-1-yl)-pyridin-2-ylamino]-pyrimidin-4-yl}-benzonitrile] |
| < 100 | < 100 | CC[C@H](O)C(=O)N1CCC(Oc2ccc(-c3ccnc(Nc4ccc(N5CCN(C6COC6)CC5)c(OC)n4)n3)cc2C#N)C(F)(F)C1 (stereo partly drawn) [Example 258, 2-[3,3-Difluoro-1-((S)-2-hydroxy-butyryl)-piperidin-4-yloxy]-5-{2-[6-methoxy-5-(4-oxetan-3-yl-piperazin-1-yl)-pyridin-2-ylamino]-pyrimidin-4-yl}-benzonitrile] |
| < 100 | < 100 | COc1nc(Nc2nccc(-c3ccc(OC4CCN(C(=O)C(C)F)CC4(F)F)c(C#N)c3)n2)ccc1N1CCN(C2COC2)CC1 (stereo not shown) [Example 259, 2-[3,3-Difluoro-1-(2-fluoro-propionyl)-piperidin-4-yloxy]-5-{2-[6-methoxy-5-(4-oxetan-3-yl-piperazin-1-yl)-pyridin-2-ylamino]-pyrimidin-4-yl}-benzonitrile] |
| < 100 | < 100 | COc1nc(Nc2nccc(-c3ccc(OC4CCN(C(=O)[C@@H](O)CO)CC4(F)F)c(C#N)c3)n2)ccc1N1CCN(C2COC2)CC1 (stereo partly drawn) [Example 260, 2-[1-((S)-2,3-Dihydroxy-propionyl)-3,3-difluoro-piperidin-4-yloxy]-5-{2-[6-methoxy-5-(4-oxetan-3-yl-piperazin-1-yl)-pyridin-2-ylamino]-pyrimidin-4-yl}-benzonitrile] |
| < 100 | < 100 | COc1nc(Nc2nccc(-c3ccc(OC4CCN(C(=O)[C@@H](O)CO)CC4(F)F)c(C#N)c3)n2)ccc1N1CCN(C2COC2)[C@H](C)C1 (stereo partly drawn) [Example 262, 2-[1-((S)-2,3-Dihydroxy-propionyl)-3,3-difluoro-piperidin-4-yloxy]-5-{2-[6-methoxy-5-((R)-3-methyl-4-oxetan-3-yl-piperazin-1-yl)-pyridin-2-ylamino]-pyrimidin-4-yl}-benzonitrile] |

— US20230019491A1, “PYRIMIDINE TBK/IKKe INHIBITOR COMPOUNDS AND USES THEREOF” (Merck Patent GmbH, priority 2017, published 2023)
